A short description of data set [1]: Microsomal stability assay, mouse. It is filed as in vitro ADME. The following applies: mouse microsomes, read-out: Microsomal Stability (T1/2 min) Mouse. As to the method:
(§1) Microsomal stability assays were performed using mouse, rat, and human […] according to methods well-known in the art. Microsomal stability results are shown in Table 2 for selected compounds of the invention. The compound numbers correspond to the compound numbers in Table 1. […] “N/A” indicates not assayed.

The nature of data set [2]: Microsomal stability assay, rat. It is filed as in vitro ADME. The following applies: rat microsomes, read-out: Microsomal Stability (T1/2 min) Rat. As to the method: as §1
Data set [3] can be described thus: Microsomal stability assay, human. The class given is in vitro ADME. The following applies: human microsomes, read-out: Microsomal Stability (T1/2 min) Human. As to the method: as §1
The target of data set [4] is Nck SH3 domain interaction with the proline rich sequence of TCR subunit CD3ε (Homo sapiens, UniProt P16333). Briefly: Competitive binding, biosensor with Interferometric Optical Detection Method (IODM). The settings on record: ratio of 1:1 between Nck SH3 domain and inhibitors; biotinylated CD3ε peptide on sensing surface. As to the method:
Inhibition of Nck SH3 domain interaction with the proline rich sequence of TCR subunit CD3ε was measured by optical read-out of a biosensor based on the Interferometric Optical Detection Method (IODM), using established methods (WO 2010/026269; WO 2014/020159; Laguna, M. et al., Sensors, 2015, 15(8):19819-29; and Holgado, M. et al., Sensors, 2014, 14(2): 3675-89).
Briefly, a Biophotonic Cell (BICELL) based on Fabry-Perot interferometers was used as the photonic transducer. The BICELL was fabricated using SU8 in cyclopentanone according to known methods (e.g., Laguna, M. F. et al., Sensors, 2014, 14(4): 6695-6700). Cured film was then treated with 95% sulfuric acid for 10 seconds. Streptavidin was then immobilized on the sensing surface in phosphate buffered saline (PBS; pH 7.4) over 20 min at 37° C. followed by blocking of the surface with 5% skin milk in PBS (pH 7.4). Biotinylated CD3ε peptide (SEQ ID NO: 001) in PBS (pH 7.4) was incubated with the streptavidin coated film to biofunctionalize the sensing surface (20 min at 37° C.).
Competitive binding assays were performed to determine the affinity reaction of inhibitors. The screening was carried out using a ratio of 1:1 between Nck SH3 domain and inhibitors. The optical readout of the biosensor was accomplished by a Fourier transform visible-infrared (FT-VIS-IR) spectrometer. Competitive binding results are shown in Table 3 for selected compounds of the invention. The compound numbers correspond to the compound numbers in Table 1. Compounds having a designation of “A” provide an Increased Relative Optical Power (ΔIROP) of less than or equal to thirty percent (≤30%); compounds having a designation of “B” provide a ΔIROP of between thirty and fifty percent (>30% to ≤50%); compounds having a designation of “C” provide an ΔIROP of between fifty and seventy percent (>50% to ≤70%); and compounds having a designation of “D” provide a ΔIROP of greater than seventy percent (>70%).

The test system of data set [5] is CD3 mediated phosphorylation of ZAP70 in Jurkat cells. Description: CD3 mediated phosphorylation of ZAP70 in Jurkat cells (HTRF). The settings on record: Homo sapiens, Jurkat cells stimulated with 20 μg/mL anti-CD3 antibody. It is filed as cell-based. As to the method: Inhibition of CD3 mediated phosphorylation of ZAP70 in Jurkat cells was measured by a cellular based Homogeneous Time-Resolved Fluorescence (HTRF) assay utilizing a Total ZAP-70 HTRF kit.
Briefly, Jurkat cells (˜1.3×10^6 cells/mL) were harvested on the day of experimentation. Cells were washed with PBS and resuspended in Assay Buffer (RPMI 1640 media plus 10% FBS) and counted.
Jurkat cells were seeded in Assay media at a total volume of 4 μL/well (40K cells/well) in a 384-low volume white flat bottom plate. The cells were then incubated at 37° C./5% CO2 for 30 minutes. The cells were then treated in duplicate with test compounds (3×) and reference compounds (3×) in a total volume of 4 μL, respectively. A compound dilution scheme is exemplified in FIG. 1.
The plate was then transferred to an incubator maintained at 37° C./5% CO2 for 2 minutes. Following incubation, cells were stimulated with 20 μg/mL of anti-CD3 antibody (1 mg/mL stock) and assay media was used to bring the total well volume 4 μL/well. The plate was then transferred to the incubator maintained at 37° C./5% CO2 for 2.5 minutes. Following incubation, 4 μL of lysis buffer (4×) provided in the kit was added to each well. The plate was then incubated at RT for 1 hour with gentle shaking. Following incubation, 4 μL of detection mix was added to each well and the plate was sealed with a plate sealer and left overnight at RT in the dark.
The Envision reader was set-up for Eu^3+ cryptate and fluorescence emission was read at two different wavelengths (620 nm and 665 nm). • Excitation filter: UV2(TRF) 320 nm • Emission filter: 665 nm • 2nd Emission filter: Europium 615 nm • Measurement height (mm): 6.5 • Excitation light (%): 100 • Delay (μs): 50 • Window time (μs): 400 • Time between flashes (μs): 2000 • Number of flashes: 100 • Number of flashes for 2nd detector: 100
The data is represented by the signal form the two wavelengths:
The ratio of the signal is calculated for each individual well:
The data was plotted using Graph Pad Prism. The significance between untreated vs. treated groups was assessed by One-way ANOVA and Bonferroni posttest comparing all columns in the graph.
ZAP70 IC50 results are shown in Table 6 for select compounds of the invention. The compound numbers correspond to the compound numbers in Table 1. […] “ND” indicates not determined.
ZAP70 percent maximum inhibition results are shown in Table 7 for select compounds of the invention. The compound numbers correspond to the compound numbers in Table 1.
(In general: TR-FRET usually uses a lanthanide donor and a delayed reading to cut background.)

Structures are written as SMILES.

With `O=C(C1=C(c2ccc(F)cc2)c2cc(OC(F)F)ccc2OC1)N1CCCC1` [Compound I-1], the half-life in data set [1], in data set [2] and in data set [3] was < 10 min in each case. Besides, in data set [4], the “ΔIROP (Increased Relative Optical Power)” value is “C (an ΔIROP of between fifty and seventy percent (>50% to ≤70%))”.

Turning to `CCNC(=O)C1=C(c2ccc(F)cc2)c2cc(OC(F)F)ccc2OC1` [Compound I-2], the figures for the half-life in data set [1], in data set [2] and in data set [3] were < 10 min, < 10 min and 10 to 30 min, respectively. In addition, the “ΔIROP (Increased Relative Optical Power)” value in data set [4] is “C (an ΔIROP of between fifty and seventy percent (>50% to ≤70%))”.

Turning to `CN(C)CCNC(=O)C1=C(c2ccc(F)cc2)c2cc(OC(F)F)ccc2OC1` [Compound I-4], the half-life in data set [1] was 10 to 30 min; in data set [2], 10 to 30 min; in data set [3], > 30 min. Further, the “ΔIROP (Increased Relative Optical Power)” value in data set [4] is “B (a ΔIROP of between thirty and fifty percent (>30% to ≤50%))”.

For `Fc1ccc(C2=C(CN3CCOCC3)COc3ccc(OC(F)F)cc32)cc1` [Compound I-5], the half-life in data set [1], in data set [2] and in data set [3] was 10 to 30 min in each case. Also, in data set [4], the “ΔIROP (Increased Relative Optical Power)” value is “B (a ΔIROP of between thirty and fifty percent (>30% to ≤50%))”.

`CCNCC1=C(c2ccc(F)cc2)c2cc(OC(F)F)ccc2OC1` [Compound I-6]: the values for the half-life in data set [1], in data set [2] and in data set [3] were > 30 min, < 10 min and > 30 min, respectively. The “ΔIROP (Increased Relative Optical Power)” value in data set [4] is “C (an ΔIROP of between fifty and seventy percent (>50% to ≤70%))”.

Take `CCNC(=O)C1=C(c2ccc(F)cc2)c2cc(OC(F)(F)F)ccc2OC1` [Compound I-8]: the half-life in data set [1] is < 10 min; in data set [2], < 10 min; in data set [3], > 30 min. Moreover, the “ΔIROP (Increased Relative Optical Power)” value in data set [4] is “B (a ΔIROP of between thirty and fifty percent (>30% to ≤50%))”.

`CN1CCN(C(=O)C2=C(c3ccc(F)cc3)c3cc(OC(F)(F)F)ccc3OC2)CC1` [Compound I-9]: the half-life in data set [1] is 10 to 30 min; in data set [2], < 10 min; in data set [3] it was 10 to 30 min. For the same compound, in data set [4], the “ΔIROP (Increased Relative Optical Power)” value is on record as “D (a ΔIROP of greater than seventy percent (>70%))”.

As to `CN(C)CCNC(=O)C1=C(c2ccc(F)cc2)c2cc(OC(F)(F)F)ccc2OC1` [Compound I-10, N-(2-(dimethylamino)ethyl)-4-(4-fluorophenyl)-6-(trifluoromethoxy)-2H-chromene-3-carboxamide], the half-life in data set [1], in data set [2] and in data set [3] was > 30 min throughout. In addition, the “ΔIROP (Increased Relative Optical Power)” value in data set [4] was “A (an Increased Relative Optical Power (ΔIROP) of less than or equal to thirty percent (≤30%))”.

Turning to `Fc1ccc(C2=C(CN3CCCC3)COc3ccc(C(F)(F)F)cc32)cc1` [Compound I-17, 1-((4-(4-fluorophenyl)-6-(trifluoromethyl)-2H-chromen-3-yl)methyl)pyrrolidine], the half-life in data set [1] was > 30 min; in data set [2], 10 to 30 min; in data set [3], > 30 min. The “ΔIROP (Increased Relative Optical Power)” value in data set [4] is “C (an ΔIROP of between fifty and seventy percent (>50% to ≤70%))”.

`CN1CCN(C(=O)C2=C(c3ccc(F)cc3)c3cc(Cl)ccc3OC2)CC1` [Compound I-25]: the results for the half-life in data set [1], in data set [2] and in data set [3] were < 10 min, < 10 min and 10 to 30 min, respectively. In data set [4], the “ΔIROP (Increased Relative Optical Power)” value is “B (a ΔIROP of between thirty and fifty percent (>30% to ≤50%))”.

For `Fc1ccc(C2=C(CN3CCCC3)COc3ccc(F)cc32)cc1` [Compound I-63, 1-((6-fluoro-4-(4-fluorophenyl)-2H-chromen-3-yl)methyl)pyrrolidine], the half-life in data set [1] is 10 to 30 min; in data set [2] it was < 10 min; in data set [3], > 30 min. Further, the Emax in data set [5] (maximum inhibition, read-out: pZAP70 Inhibition - Maximum Percent Inhibition (% Inhibition)) was 30 to 40%. Also, the IC50 (as a rule, the midpoint of a concentration-inhibition curve) in data set [5] (read-out: pZAP70 Inhibition IC50) was 1 to 10 nM.

(Values after patent US12319675B2 (Artax Biopharma Inc., priority 2018, dated 2025).)
